How the values were obtained:
Assay in all cases: relative viability (nuclei count vs DMSO), 5 days (fraction); higher = more cells survive
[1] = compound: C1=CC=C2C(=C1)N=C(S2)C(C#N)C3=NC(=NC=C3)NCCC4=CN=CC=C4 + CCNC(=O)c1noc(-c2cc(C(C)C)c(O)cc2O)c1-c1ccc(CN2CCOCC2)cc1 [Luminespib] (partner 0.01 µM)
In short: (§1)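 Medians of duplicate plates are given as relative viability. That measure is the nuclei count in treated wells divided by the count in vehicle wells. Counts were taken on 4× images of lung cancer cell lines in 1536-well plates, 5 days after pin-tool dosing the day after seeding with one drug alone or a fixed anchor-drug dose plus five library-drug doses (not always all listed) in √10 steps.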

Vandetanib + Trametinib = compound: COc1cc2/c(=N/c3ccc(Br)cc3F)nc[nH]c2cc1OCC1CCN(C)CC1 [Vandetanib] + CC(=O)Nc1cccc(-n2c(=O)n(C3CC3)c(=O)c3c(Nc4ccc(I)cc4F)n(C)c(=O)c(C)c32)c1 [Trametinib] (partner 0.02 µM)
In short: as §1

CUDC-101 + OSI-027 = compound: C#Cc1cccc(Nc2ncnc3cc(OC)c(OCCCCCCC(=O)NO)cc23)c1 [CUDC-101] + COc1cccc2cc(-c3nc([C@H]4CC[C@H](C(=O)O)CC4)n4ncnc(N)c34)[nH]c12 [OSI-027] (partner 0.5 µM)
In short: as §1

NVP-TAE684 + Navitoclax = compound: COc1cc(N2CCC(N3CCN(C)CC3)CC2)ccc1Nc1ncc(Cl)c(Nc2ccccc2S(=O)(=O)C(C)C)n1 [NVP-TAE684] + CC1(C)CCC(c2ccc(Cl)cc2)=C(CN2CCN(c3ccc(C(=O)NS(=O)(=O)c4ccc(N[C@H](CCN5CCOCC5)CSc5ccccc5)c(S(=O)(=O)C(F)(F)F)c4)cc3)CC2)C1 [Navitoclax] (partner 0.5 µM)
In short: as §1

Cell Line | relative viability ([1]; first compound 0.005 µM) | relative viability ([1]; first compound 0.01581 µM) | relative viability ([1]; first compound 0.05 µM) | relative viability ([1]; first compound 0.1581 µM) | relative viability ([1]; first compound 0.5 µM) | relative viability (Vandetanib + Trametinib; first compound 0.02 µM) | relative viability (Vandetanib + Trametinib; first compound 0.06325 µM) | relative viability (Vandetanib + Trametinib; first compound 0.2 µM) | relative viability (Vandetanib + Trametinib; first compound 0.6325 µM) | relative viability (Vandetanib + Trametinib; first compound 2 µM) | relative viability (CUDC-101 + OSI-027; first compound 0.01 µM) | relative viability (CUDC-101 + OSI-027; first compound 0.03162 µM) | relative viability (CUDC-101 + OSI-027; first compound 0.1 µM) | relative viability (CUDC-101 + OSI-027; first compound 0.3162 µM) | relative viability (CUDC-101 + OSI-027; first compound 1 µM) | relative viability (NVP-TAE684 + Navitoclax; first compound 0.2 µM) | relative viability (NVP-TAE684 + Navitoclax; first compound 0.6325 µM) | relative viability (NVP-TAE684 + Navitoclax; first compound 2 µM)
NCI-H522 | 1.07 | 1.05 | 1.12 | 1.15 | 1.12 | 0.87 | 0.818 | 0.856 | 0.791 | 0.771 | 0.638 | 0.64 | 0.67 | 0.703 | 0.549 |  |  | 
RERF-LC-KJ | 0.935 | 0.982 | 1.4 | 1.18 | 1.06 | 0.808 | 0.933 | 0.528 | 0.831 | 0.688 | 0.517 | 0.612 | 0.674 | 0.585 | 0.401 | 1.14 | 1.04 | 0.67
A-427 | 0.784 | 1 | 0.861 | 1.18 | 0.965 | 0.734 | 0.662 | 0.745 | 0.737 | 0.742 | 0.464 | 0.486 | 0.351 | 0.473 | 0.308 | 0.992 |  | 0.874
EKVX | 0.953 | 0.837 | 0.868 | 0.673 | 0.842 | 0.37 | 0.289 | 0.281 | 0.294 | 0.212 | 0.649 | 0.696 | 0.694 | 0.798 | 0.579 | 0.994 | 0.907 | 0.613
NCI-H460 | 0.0281 | 0.0289 | 0.031 | 0.0329 | 0.0322 | 0.141 | 0.147 | 0.157 | 0.148 | 0.123 | 0.701 | 0.62 | 0.734 | 0.762 | 0.555 |  | 1.14 | 0.407
HARA | 0.527 | 0.802 | 0.452 | 0.666 | 0.675 | 0.515 | 0.522 | 0.574 | 0.857 | 0.523 | 0.509 | 0.442 | 0.322 | 0.348 | 0.171 | 1.02 |  | 0.701
NCI-H1944 | 0.739 | 0.854 | 0.558 | 0.636 | 0.759 | 0.456 | 0.427 | 0.425 | 0.402 | 0.369 | 0.436 | 0.388 | 0.357 | 0.36 | 0.253 | 1.19 | 0.961 | 1.08
BEN | 0.081 | 0.337 | 0.254 | 0.688 | 0.342 | 1.09 | 1.01 | 0.985 | 1 | 0.798 | 0.336 | 0.259 | 0.348 | 0.281 | 0.292 | 0.188 | 0.0569 | 0.0697
PC-14 | 0.197 |  | 0.117 | 0.119 | 0.155 | 0.725 | 0.51 | 0.071 | 0.109 | 0.0866 | 1.02 | 0.813 | 0.378 | 0.571 | 0.0565 | 1.13 | 1.05 | 0.894
NCI-H322M | 0.646 | 0.829 | 0.88 | 0.933 | 0.932 | 0.513 | 0.476 | 0.516 | 0.55 | 0.486 | 0.679 | 0.555 | 0.518 | 0.417 | 0.308 | 1.21 | 1.3 | 1.2
NCI-H1651 | 0.752 | 0.647 | 1.02 | 1.09 | 0.705 | 0.822 | 0.818 | 0.83 | 0.876 | 0.727 | 0.707 | 0.67 | 0.746 | 0.912 | 0.679 | 1.41 | 1.07 | 0.964
LCLC-97TM1 | 0.748 | 0.896 | 0.795 | 0.947 | 0.685 | 0.201 | 0.217 | 0.202 | 0.192 | 0.165 | 0.635 | 0.571 | 0.445 | 0.548 | 0.273 | 0.321 | 0.495 | 0.13
NCI-H727 |  | 0.241 | 0.294 | 0.105 | 0.329 | 0.417 | 0.379 | 0.366 | 0.364 | 0.329 | 0.633 | 0.601 | 0.7 | 0.578 | 0.369 | 0.381 | 0.331 | 0.153
NCI-H1623 | 0.932 | 0.466 | 0.508 | 0.322 | 0.346 |  |  |  |  |  | 0.452 | 0.441 | 0.33 | 0.329 | 0.239 |  |  | 
NCI-H1666 | 0.856 | 0.965 | 0.986 | 1.1 | 0.833 | 0.844 | 0.817 | 0.879 | 0.764 | 0.815 | 0.85 | 0.867 | 0.837 | 0.857 | 0.739 | 0.932 | 0.919 | 0.566
IA-LM |  |  |  |  |  |  |  |  |  |  |  |  |  |  |  | 0.762 | 0.641 | 0.687
NCI-H1792 |  | 0.462 | 0.453 | 0.255 | 0.6 | 0.407 | 0.413 | 0.463 | 0.502 | 0.354 | 0.777 | 0.649 | 0.731 | 0.715 | 0.629 | 0.533 | 0.579 | 0.558
NCI-H1299 |  |  |  |  |  |  |  |  |  |  |  |  |  |  |  | 1.08 | 1.05 | 1.05
HCC-366 |  |  |  |  |  | 0.265 | 0.339 | 0.343 | 0.362 | 0.269 | 0.914 | 0.768 | 1.01 | 1.15 | 0.815 | 1.18 | 0.999 | 1.02

From the supplement of paper PMC10307832
